The values that follow come from patent publication US11358936B2, “Lysyl oxidase-like 2 inhibitors and uses thereof” (PharmAkea, Inc., priority 2015, dated 2022).

Molecules are shown by their SMILES. Counter-ions that a name gives are not always drawn.

The target of the assay is human LOXL2 (Homo sapiens (Human), UniProt Q9Y4K0). Nature of the assay: Human LOXL2 Amine Oxidase Activity Assay (Amplex Red fluorescence). Type of assay: biochemical. Particulars: concentrated conditioned media from CHO cells stably expressing human LOXL2; 2 h at 37° C. preincubation; DAP substrate; read-out: IC50. As for the experimental part: LOXL2 amine oxidase activity is evaluated by measuring Amplex Red fluorescence using 10-20× concentrated conditioned media from CHO cells stably expressing human LOXL2. To assay for amine oxidase activity, 10 μL of the concentrated conditioned media is incubated with 2 μL of test compound in DMSO and 73 μL Assay Buffer (50 mM Borate Buffer, pH8) for 2 h at 37° C. After the 2 h incubation, 5 μl of 10 mM 1,5-Diaminopentane (DAP) diluted in Assay Buffer and 10 μl of Amplex Red Mix (8.5 μl Assay Buffer+0.5 μl of 10 mM Amplex Red+1 μl of 500 U/ml Horseradish Peroxidase) are added and the plate mixed and immediately placed on the FlexStaion for fluorescence measurements. Fluorescence is read in kinetic mode every 2 min for 1 hour at excitation=544 and emission=590. The amine oxidase activity is calculated from the slope of the linear portion of the curve.
human LOXL2, sequence (Q9Y4K0 26-774): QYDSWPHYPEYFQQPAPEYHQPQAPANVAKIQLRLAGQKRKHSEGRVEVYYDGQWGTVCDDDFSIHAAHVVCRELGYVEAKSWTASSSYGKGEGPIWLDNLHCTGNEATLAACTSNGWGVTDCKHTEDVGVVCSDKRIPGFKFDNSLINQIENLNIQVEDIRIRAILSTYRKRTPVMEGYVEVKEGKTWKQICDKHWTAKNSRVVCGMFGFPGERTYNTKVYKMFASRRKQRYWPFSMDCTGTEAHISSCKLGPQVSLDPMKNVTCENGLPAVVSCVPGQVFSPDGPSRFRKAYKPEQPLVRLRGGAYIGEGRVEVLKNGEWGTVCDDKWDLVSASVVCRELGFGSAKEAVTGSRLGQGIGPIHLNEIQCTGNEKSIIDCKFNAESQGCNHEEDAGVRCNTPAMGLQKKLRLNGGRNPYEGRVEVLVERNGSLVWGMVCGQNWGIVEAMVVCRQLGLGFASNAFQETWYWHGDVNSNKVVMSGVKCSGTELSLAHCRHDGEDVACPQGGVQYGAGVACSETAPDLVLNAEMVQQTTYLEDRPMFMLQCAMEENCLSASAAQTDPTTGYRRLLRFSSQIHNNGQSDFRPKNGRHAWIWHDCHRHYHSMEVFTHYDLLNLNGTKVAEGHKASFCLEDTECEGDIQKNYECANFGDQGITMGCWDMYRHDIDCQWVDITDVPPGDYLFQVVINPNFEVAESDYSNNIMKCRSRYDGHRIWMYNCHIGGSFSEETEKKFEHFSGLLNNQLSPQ
`NCc1ccnc(Oc2cccc3c2ccn3Cc2ccccc2)c1` [Compound 2-10, (2-((1-Benzyl-1H-indol-4-yl)oxy)pyridin-4-yl)methanamine hydrochloride]: the IC50 was under 300 nM.

For `Cc1cc2c(Oc3cc(CN)ccn3)cccc2n1Cc1ccc(F)cc1F` [Compound 2-11, (2-((1-(2,4-Difluorobenzyl)-2-methyl-1H-indol-4-yl)oxy)pyridin-4-yl)methanamine trifluoroacetate], the IC50 is under 300 nM.

`Cc1cn(Cc2ccc(F)cc2F)c2cccc(Oc3cc(CN)ccn3)c12` [Compound 2-12, (2-((1-(2,4-Difluorobenzyl)-3-methyl-1H-indol-4-yl)oxy)pyridin-4-yl)methanamine trifluoroacetate]: the IC50 was under 300 nM.

Turning to `COc1ccc(Cn2c(C)cc3c(Oc4cc(CN)ccn4)cccc32)cn1` [Compound 2-13, (2-((1-((6-Methoxypyridin-3-yl)methyl)-2-methyl-1H-indol-4-yl)oxy)pyridin-4-yl)methanamine trifluoroacetate], the IC50 was under 300 nM.

For `COc1ccc(Cn2cc(C)c3c(Oc4cc(CN)ccn4)cccc32)cn1` [Compound 2-14, (2-((1-((6-Methoxypyridin-3-yl)methyl)-3-methyl-1H-indol-4-yl)oxy)pyridin-4-yl)methanamine trifluoroacetate], the IC50 was under 300 nM.

In the case of `NCc1ccnc(Oc2cccc3c2ccn3Cc2ccc(F)cn2)c1` [Compound 2-15, (2-((1-((5-Fluoropyridin-2-yl)methyl)-1H-indol-4-yl)oxy)pyridin-4-yl) methanamine hydrochloride], the IC50 was under 300 nM.

Take `NCc1ccnc(Oc2cccc3c2ccn3Cc2ccc3ccccc3n2)c1` [Compound 2-16, (2-((1-(Quinolin-2-ylmethyl)-1H-indol-4-yl)oxy)pyridin-4-yl)methanamine hydrochloride]: the IC50 was under 300 nM.

For `NCc1ccnc(Oc2cccc3c2ccn3Cc2cnc(C(F)(F)F)s2)c1` [Compound 2-17, (2-((1-((2-(Trifluoromethyl)thiazol-5-yl)methyl)-1H-indol-4-yl)oxy)pyridin-4-ylmethanamine hydrochloride], the IC50 was under 300 nM.

`NCc1ccnc(Oc2cccc3c2ccn3-c2ccc(F)cc2)c1` [Compound 2-18, (2-((1-(4-Fluorophenyl)-1H-indol-4-yl)oxy)pyridin-4-yl)methanamine hydrochloride]: the IC50 is under 300 nM.

For `Cn1cc(-n2ccc3c(Oc4cc(CN)ccn4)cccc32)cn1` [Compound 2-19, (2-((1-(1-Methyl-1H-pyrazol-4-yl)-1H-indol-4-yl)oxy)pyridin-4-yl)methanamine hydrochloride], the IC50 is under 300 nM.

Regarding `COc1ccc(-n2ccc3c(Oc4cc(CN)ccn4)cccc32)cn1` [Compound 2-20, (2-((1-(6-Methoxypyridin-3-yl)-1H-indol-4-yl)oxy)pyridin-4-yl)methanamine hydrochloride], the IC50 is under 300 nM.

For the molecule `NCc1ccnc(Oc2cccc3c2ccn3-c2nc3ccc(F)cc3s2)c1` [Compound 2-21, (2-((1-(6-Fluorobenzo[d]thiazol-2-yl)-1H-indol-4-yl)oxy)pyridin-4-yl)methanamine hydrochloride], the IC50 was under 300 nM.

On to `NCc1ccnc(Oc2cccc3c2ccn3CCc2ccc(F)cc2)c1` [Compound 2-22, (2-((1-(4-Fluorophenethyl)-1H-indol-4-yl)oxy)pyridin-4-yl)methanamine hydrochloride], for which the IC50 was under 300 nM.

As to `NCc1ccnc(Oc2cccc3c2c(Br)cn3CCc2ccc(F)cc2)c1` [Compound 2-23, (2-((3-Bromo-1-(4-fluorophenethyl)-1H-indol-4-yl)oxy)pyridin-4-yl)methanamine hydrochloride], the IC50 was under 300 nM.

With `NCc1ccnc(Oc2cccc3c2ccn3C(=O)c2ccccc2)c1` [Compound 2-24, (4-((4-(Aminomethyl)pyridin-2-yl)oxy)-1H-indol-1-yl)(phenyl)methanone hydrochloride], the IC50 was under 300 nM.

Regarding `NCc1ccnc(Oc2cccc3c2ccn3C(=O)Nc2ccccc2)c1` [Compound 2-25, 4-((4-(Aminomethyl)pyridin-2-yl)oxy)-N-phenyl-1H-indole-1-carboxamide hydrochloride], the IC50 was under 300 nM.

As to `CN(C)C(=O)Cn1ccc2c(Oc3cc(CN)ccn3)cccc21` [Compound 2-26, 2-(4-((4-(Aminomethyl)pyridin-2-yl)oxy)-1H-indol-1-yl)-N,N-dimethylacetamide hydrochloride], the IC50 was under 300 nM.

`NCc1ccnc(Oc2cccc3c2ccn3CC(=O)N2CCCCC2)c1` [Compound 2-27, 2-(4-((4-(Aminomethyl)pyridin-2-yl)oxy)-1H-indol-1-yl)-1-(piperidin-1-yl)ethanone hydrochloride]: the IC50 was under 300 nM.

As to `CN(C(=O)Cn1ccc2c(Oc3cc(CN)ccn3)cccc21)c1ccccc1` [Compound 2-30, 2-(4-((4-(Aminomethyl)pyridin-2-yl)oxy)-1H-indol-1-yl)-N-methyl-N-phenylacetamide hydrochloride], the IC50 was under 300 nM.

For the molecule `NCc1ccnc(Oc2cccc3c2ccn3CC(=O)N2CCCc3ccccc32)c1` [Compound 2-31, 2-(4-((4-(Aminomethyl)pyridin-2-yl)oxy)-1H-indol-1-yl)-1-(3,4-dihydroquinolin-1(2H)-yl)ethanone hydrochloride], the half-inhibitory concentration (IC50) is under 300 nM.

Turning to `NCc1ccnc(Oc2cccc3[nH]ccc23)c1` [Compound 2-32, (2-((1H-Indol-4-yl)oxy)pyridin-4-yl)methanamine trifluoroacetate], the IC50 was under 300 nM.

On to `NCc1ccnc(Oc2cccc3c2CCN3c2nc3ccc(F)cc3s2)c1` [Compound 2-33, (2-((1-(6-Fluorobenzo[d]thiazol-2-yl)indolin-4-yl)oxy)pyridin-4-yl)methanamine hydrochloride], for which the IC50 was under 300 nM.

In the case of `Cc1nn(Cc2ccc(F)cc2F)c2cccc(Oc3cc(CN)ccn3)c12` [Compound 2-35, (2-((1-(2,4-Difluorobenzyl)-3-methyl-1H-indazol-4-yl)oxy)pyridin-4-yl)methanamine trifluoroacetate], the IC50 was under 300 nM.

With `NCc1ccnc(Oc2cccc3c2CCC(=O)N3Cc2ccc(F)cc2F)c1` [Compound 2-36, 5-((4-(Aminomethyl)pyridin-2-yl)oxy)-1-(2,4-difluorobenzyl)-3,4-dihydroquinolin-2(1H)-one hydrochloride], the IC50 is under 300 nM.

For the molecule `COc1ccc(CN2C(=O)CCc3c(Oc4cc(CN)ccn4)cccc32)cn1` [Compound 2-37, 5-((4-(Aminomethyl)pyridin-2-yl)oxy)-1-((6-methoxypyridin-3-yl)methyl)-3,4-dihydroquinolin-2(1H)-one acetate], the IC50 was under 300 nM.

Turning to `NCc1ccnc(O[C@H]2CCCN(C(=O)c3ccccc3)C2)c1` [Compound 2-38, (S)-(3-((4-(Aminomethyl)pyridin-2-yl)oxy)piperidin-1-yl)(phenyl)methanone trifluoroacetate], the IC50 is under 300 nM.

In the case of `NCc1ccnc(O[C@H]2CCCN(C(=O)Nc3ccccc3)C2)c1` [Compound 2-39, (A)-3-((4-(Aminomethyl)pyridin-2-yl)oxy)-N-phenylpiperidine-1-carboxamide trifluoroacetate], the 50% inhibitory concentration (IC50) is under 300 nM.

For the molecule `Cc1ccc(C(=O)Nc2cc(CN)ccn2)c(F)c1` [Compound 2-42, N-(4-(Aminomethyl)pyridin-2-yl)-2-fluoro-4-methylbenzamide trifluoroacetate], the IC50 lay in the range of 300 to 1000 nM.

On to `NCc1ccnc(NC(=O)Cc2ccc(Cl)c(Cl)c2)c1` [Compound 2-43, N-(4-(Aminomethyl)pyridin-2-yl)-2-(3,4-dichlorophenyl)acetamide trifluoroacetate], for which the IC50 lay within 300 to 1000 nM.

As to `CN(C)c1cc(CN)cc(Oc2cccc(Oc3ccccc3)c2)n1` [Compound 3-1, 4-(Aminomethyl)-N,N-dimethyl-6-(3-phenoxyphenoxy)pyridin-2-amine hydrochloride], the IC50 was over 1000 nM.

In the case of `COCCNc1cc(CN)cc(Oc2cccc(Oc3ccccc3)c2)n1` [Compound 3-2, 4-(Aminomethyl)-N-(2-methoxyethyl)-6-(3-phenoxyphenoxy)pyridin-2-amine trifluoroacetate], the IC50 fell in the range of 300 to 1000 nM.

In the case of `NCc1cc(Oc2cccc(Oc3ccccc3)c2)nc(-c2ccc(F)cc2)c1` [Compound 3-3, (2-(4-Fluorophenyl)-6-(3-phenoxyphenoxy)pyridin-4-yl)methanamine trifluoroacetate], the IC50 lay in the range of 300 to 1000 nM.

`NCc1cccnc1F` [Compound 4-1, 2-Fluoro-3-(aminomethyl)pyridine]: the IC50 is over 1000 nM.

Take `NCc1ccncc1F` [Compound 4-2, 3-Fluoro-4-(aminomethyl)pyridine]: the IC50 lay within 300 to 1000 nM.

Turning to `NCc1ccnc(F)c1` [Compound 4-3, 2-Fluoro-4-(aminomethyl)pyridine], the IC50 lay within 300 to 1000 nM.

For `NCc1ccnc(Cl)c1` [Compound 4-5, 2-Chloro-4-(aminomethyl)pyridine], the IC50 was under 300 nM.

For `NCc1ccnc(OCc2ccccc2)c1` [Compound 4-6, 2-Benzyloxy-4-(aminomethyl)pyridine], the IC50 was over 1000 nM.

Consider `NCc1ccnc(OC2CCCCC2)c1` [Compound 4-7, 2-Cyclohexyloxy-4-(aminomethyl)pyridine], for which the IC50 is under 300 nM.

Take `NCc1ccnc(Oc2ccc(F)cc2)c1` [Compound 4-8, 2-(4-Fluorophenoxy)-4-(aminomethyl)pyridine]: the IC50 was under 300 nM.

For the molecule `NCc1ccnc(Oc2ccccc2C(F)(F)F)c1` [Compound 4-9, 2-(2-Trifluoromethylphenoxy)-4-(aminomethyl)pyridine], the IC50 is under 300 nM.
